# Assay results: ChEMBL document CHEMBL1131256, “Discovery of a novel series of potent and selective substrate-based inhibitors of p60c-src protein tyrosine kinase: conformational and topographical constraints in peptide design” (J Med Chem, 1998)
# How the values were obtained:
# [1] = target: Tyrosine-protein kinase Lyn (Homo sapiens, UniProt P07948); assay: Inhibition of Lyn kinase against 100 uM cdc2 substrate
# [2] = target: Tyrosine-protein kinase Lck (Homo sapiens, UniProt P06239); assay: Inhibition of p56 Lck kinase against 100 uM cdc2 substrate
# Sequence of Tyrosine-protein kinase Lck (P06239 whole entry): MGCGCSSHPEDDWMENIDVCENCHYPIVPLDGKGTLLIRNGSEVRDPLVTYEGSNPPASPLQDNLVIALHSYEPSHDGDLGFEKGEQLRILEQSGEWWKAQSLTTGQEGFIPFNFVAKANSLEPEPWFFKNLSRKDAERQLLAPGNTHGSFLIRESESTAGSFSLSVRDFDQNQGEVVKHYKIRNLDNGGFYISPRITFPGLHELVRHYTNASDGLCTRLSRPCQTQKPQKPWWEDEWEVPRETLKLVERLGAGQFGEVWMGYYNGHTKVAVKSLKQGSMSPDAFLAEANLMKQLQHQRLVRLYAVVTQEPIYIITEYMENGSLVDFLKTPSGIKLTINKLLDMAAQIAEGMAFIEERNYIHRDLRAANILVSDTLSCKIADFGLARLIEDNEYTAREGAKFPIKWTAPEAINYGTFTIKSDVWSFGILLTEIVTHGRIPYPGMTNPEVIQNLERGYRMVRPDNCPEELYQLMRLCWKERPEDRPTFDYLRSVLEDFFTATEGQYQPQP
# [3] = target: Proto-oncogene tyrosine-protein kinase Src (Homo sapiens, UniProt P12931); assay: Inhibition of c-Src tyrosine kinase.
# [4] = test system: CC[C@H](C)[C@H](NC(=O)[C@@H](N)Cc1ccc(O)cc1)C(=O)N[C@@H](Cc1ccc(O)cc1)C(=O)NCC(=O)N[C@@H](CO)C(=O)N[C@@H](Cc1ccccc1)C(=O)N[C@@H](CCCCN)C(N)=O; assay: Inhibition of c-Src tyrosine kinase against 55 uM YIYGSFK-NH2 substrate; conditions: Homo sapiens
# Sequence of Tyrosine-protein kinase Lyn (P07948 whole entry): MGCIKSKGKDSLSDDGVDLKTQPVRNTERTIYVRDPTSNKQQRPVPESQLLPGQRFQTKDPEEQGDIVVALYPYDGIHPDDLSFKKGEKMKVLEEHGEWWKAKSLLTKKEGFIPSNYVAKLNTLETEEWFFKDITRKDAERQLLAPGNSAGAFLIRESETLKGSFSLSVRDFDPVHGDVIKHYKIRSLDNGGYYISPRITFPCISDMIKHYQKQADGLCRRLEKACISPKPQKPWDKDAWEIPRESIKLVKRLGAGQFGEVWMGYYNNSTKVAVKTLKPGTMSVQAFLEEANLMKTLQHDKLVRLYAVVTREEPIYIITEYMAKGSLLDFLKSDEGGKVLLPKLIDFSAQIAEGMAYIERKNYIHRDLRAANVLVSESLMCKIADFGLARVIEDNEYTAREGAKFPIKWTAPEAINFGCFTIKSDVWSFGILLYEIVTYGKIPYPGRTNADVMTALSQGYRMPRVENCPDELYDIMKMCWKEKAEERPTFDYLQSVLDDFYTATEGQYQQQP
Compound,IC50 [3],also measured
CC1(C)SSC[C@@H](C(=O)N[C@@H](CCCCN)C(=O)N[C@@H](CCCN=C(N)N)C(N)=O)NC(=O)[C@H](Cc2ccccc2)NC(=O)[C@H](CO)NC(=O)CNC(=O)[C@H](Cc2cc(I)c(O)c(I)c2)NC(=O)[C@@H]1NC(=O)[C@@H](N)Cc1ccc(O)cc1,,IC50 [1]: > 800 µM; IC50 [2]: 11 µM
Proto-oncogene tyrosine-protein kinase Src (Homo sapiens) (from UniProt P12931),,Km [4]: 55 µM
C[C@H](c1ccc2ccccc2c1)[C@@H]1NC(=O)[C@H](NC(=O)[C@@H](N)Cc2ccc(O)cc2)C(C)(C)SSC[C@@H](C(=O)N[C@@H](CCCCN)C(=O)N[C@@H](CCCNC(=N)N)C(N)=O)NC(=O)[C@H](Cc2ccccc2)NC(=O)[C@H](CO)NC(=O)CNC1=O,,IC50 [2]: 220 µM
C[C@@H](c1ccc2ccccc2c1)[C@H]1NC(=O)[C@H](NC(=O)[C@@H](N)Cc2ccc(O)cc2)C(C)(C)SSC[C@@H](C(=O)N[C@@H](CCCCN)C(=O)N[C@@H](CCCNC(=N)N)C(N)=O)NC(=O)[C@H](Cc2ccccc2)NC(=O)[C@H](CO)NC(=O)CNC1=O,,IC50 [2]: 260 µM
CC1(C)SSC[C@@H](C(=O)N[C@@H](CCCNC(=N)N)C(N)=O)NC(=O)[C@H](Cc2ccccc2)NC(=O)[C@H](CO)NC(=O)CNC(=O)[C@H](Cc2ccc(O)cc2)NC(=O)[C@H]1NC(=O)[C@@H](N)Cc1ccc(O)cc1,4.5 µM,
C[C@H](c1ccc2ccccc2c1)[C@H]1NC(=O)[C@H](NC(=O)[C@@H](N)Cc2ccc(O)cc2)C(C)(C)SSC[C@@H](C(=O)N[C@@H](CCCCN)C(=O)N[C@@H](CCCNC(=N)N)C(N)=O)NC(=O)[C@H](Cc2ccccc2)NC(=O)[C@H](CO)NC(=O)CNC1=O,,IC50 [2]: 470 µM
CC(C)(S)[C@H](NC(=O)[C@@H](N)Cc1ccc(O)cc1)C(=O)N[C@@H](Cc1ccc(O)cc1)C(=O)NCC(=O)N[C@@H](CO)C(=O)N[C@@H](Cc1ccccc1)C(=O)N[C@@H](CS)C(=O)N[C@@H](CCCCN)C(=O)N[C@@H](CCCCN)C(N)=O,5.3 µM,
CC1(C)SSC[C@@H](C(=O)N[C@@H](CCCCN)C(N)=O)NC(=O)[C@H](Cc2ccccc2)NC(=O)[C@H](CO)NC(=O)CNC(=O)[C@H](Cc2ccc(O)cc2)NC(=O)[C@H]1NC(=O)[C@@H](N)Cc1ccc(O)cc1,6.7 µM,
CC1(C)SSC[C@@H](C(=O)N[C@@H](CCCCN)C(=O)N[C@@H](CCCNC(=N)N)C(N)=O)NC(=O)[C@H](Cc2ccccc2)NC(=O)[C@H](CO)NC(=O)CNC(=O)[C@H](Cc2ccc(O)c(I)c2)NC(=O)[C@@H]1NC(=O)[C@@H](N)Cc1ccc(O)cc1,,IC50 [1]: > 800 µM; IC50 [2]: 11 µM
CC[C@H](C)[C@H](NC(=O)[C@@H](N)CS)C(=O)N[C@@H](Cc1ccc(O)cc1)C(=O)NCC(=O)N[C@@H](CO)C(=O)N[C@@H](Cc1ccccc1)C(=O)N[C@@H](CS)C(=O)N[C@@H](CCCCN)C(=O)N[C@@H](CCCCN)C(N)=O,6.9 µM,
CC1(C)SSC[C@@H](C(=O)N[C@@H](CCCNC(=N)N)C(N)=O)NC(=O)[C@H](Cc2ccccc2)NC(=O)[C@H](CO)NC(=O)CNC(=O)[C@H](Cc2ccc3ccccc3c2)NC(=O)[C@@H]1NC(=O)[C@@H](N)Cc1ccc(O)cc1,3.3 µM,
C[C@@H](c1ccc2ccccc2c1)[C@@H]1NC(=O)[C@H](NC(=O)[C@@H](N)Cc2ccc(O)cc2)C(C)(C)SSC[C@@H](C(=O)N[C@@H](CCCCN)C(=O)N[C@@H](CCCNC(=N)N)C(N)=O)NC(=O)[C@H](Cc2ccccc2)NC(=O)[C@H](CO)NC(=O)CNC1=O,,IC50 [2]: 260 µM
CC(C)(S)[C@H](NC(=O)[C@@H](N)Cc1ccc(O)cc1)C(=O)N[C@@H](Cc1ccc2ccccc2c1)C(=O)NCC(=O)N[C@@H](CO)C(=O)N[C@@H](Cc1ccccc1)C(=O)N[C@@H](CS)C(=O)N[C@@H](CCCCN)C(=O)N[C@@H](CCCCN)C(N)=O,2.7 µM,

# Second part, led by results:
IC50 [3],Compound,also measured
6.5 µM,CC(=O)N[C@@H](Cc1ccc(O)cc1)C(=O)N[C@@H]1C(=O)N[C@@H](Cc2ccc(O)cc2)C(=O)NCC(=O)N[C@@H](CO)C(=O)N[C@@H](Cc2ccccc2)C(=O)N[C@H](C(=O)N[C@@H](CCCCN)C(=O)N[C@@H](CCCN=C(N)N)C(N)=O)CSSC1(C)C,
14.4 µM,CC1(C)SSC[C@@H](C(=O)N[C@@H](CCCCN)C(=O)N[C@@H](CCCCN)C(N)=O)NC(=O)[C@H](Cc2ccccc2)NC(=O)[C@H](CO)NC(=O)CNC(=O)[C@H](Cc2ccc(O)cc2)NC(=O)[C@H]1N,
11 µM,CC(=O)N[C@@H]1C(=O)N[C@@H](Cc2ccc(O)cc2)C(=O)NCC(=O)N[C@@H](CO)C(=O)N[C@@H](Cc2ccccc2)C(=O)N[C@H](C(=O)N[C@@H](CCCCN)C(=O)N[C@@H](CCCN=C(N)N)C(N)=O)CSSC1(C)C,
2.7 µM,CC[C@H](C)[C@@H]1NC(=O)[C@@H](N)CSSC[C@@H](C(=O)N[C@@H](CCCCN)C(=O)N[C@@H](CCCCN)C(=O)O)NC(=O)[C@H](Cc2ccccc2)NC(=O)[C@H](CO)NC(=O)CNC(=O)[C@H](Cc2ccc(O)cc2)NC1=O,
20 µM,CC1(C)SSC[C@@H](C(=O)N[C@@H](CCCCN)C(=O)N[C@@H](CCCN=C(N)N)C(N)=O)NC(=O)[C@H](Cc2ccccc2)NC(=O)[C@H](CO)NC(=O)CNC(=O)[C@H](Cc2ccc(O)cc2)NC(=O)[C@H]1N,
20 µM,CC(=O)N[C@@H]1C(=O)N[C@@H](Cc2ccc(O)cc2)C(=O)NCC(=O)N[C@@H](CO)C(=O)N[C@@H](Cc2ccccc2)C(=O)N[C@H](C(=O)N[C@@H](CCCCN)C(=O)N[C@@H](CCCCN)C(N)=O)CSSC1(C)C,
18 µM,C[C@H]1NC(=O)[C@H](Cc2ccc(O)cc2)NC(=O)[C@@H](NC(=O)[C@@H](N)Cc2ccc(O)cc2)C(C)(C)SSC[C@@H](C(=O)N[C@@H](CCCCN)C(=O)N[C@@H](CCCCN)C(N)=O)NC(=O)[C@H](Cc2ccccc2)NC(=O)[C@H](CO)NC1=O,
1.2 µM,CC1(C)SSC[C@@H](C(=O)N[C@@H](CCCCN)C(=O)N[C@@H](CCCNC(=N)N)C(N)=O)NC(=O)[C@H](Cc2ccccc2)NC(=O)[C@H](CO)NC(=O)CNC(=O)[C@H](Cc2ccc(O)cc2)NC(=O)[C@H]1NC(=O)[C@@H](N)Cc1ccc(O)cc1,
26 µM,CC(=O)N[C@@H](Cc1ccc(O)cc1)C(=O)N[C@@H]1C(=O)N[C@@H](Cc2ccc(O)cc2)C(=O)NCC(=O)N[C@@H](CO)C(=O)N[C@@H](Cc2ccccc2)C(=O)N[C@H](C(=O)N[C@@H](CCCCN)C(=O)N[C@@H](CCCCN)C(N)=O)CSSC1(C)C,
